Assay: gradient 5% acetonitrile 3 min, to 50% in 2 min, to 85% in 15 min, held 3 min, 100 µL/min
Details: column: Zorbax Extend-C18 2.1 x 50 mm; eluents: water / acetonitrile, 0.1% formic acid
How it was run: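 The mobile phases were water and acetonitrile, each with 0.1% formic acid, pumped at 100 μL/min through a Zorbax Extend-C18 column (2.1 × 50 mm, 1.8 μm). Pure standards were injected as mixtures of ~100 molecules and detected by a quadrupole time-of-flight mass spectrometer in positive and negative ionization mode. Retention time came from computationally picked adduct peaks, each inspected by hand.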

Row | Compound | RP-LC retention time [s]
1 | Cc1cnc(-c2ccncc2)n1CC1CN(Cc2cccn2C)C1 | 692
2 | Cc1cccc(NC(=O)NCC(O)Cc2ccccc2)c1 (configuration not stated) | 734
3 | CC(=O)N1CCN(c2nc3c(s2)CC(C(=O)Nc2ccc(Cl)c(C)c2)CC3)CC1 (configuration not stated) | 652
4 | Cc1ccc(-n2ncc3c(=O)n(Cc4nc(-c5ccc(F)c(Cl)c5)no4)cnc32)cc1 | 1190
5 | COc1ccc(CNC(=O)NCC2(c3ccc(F)cc3)CC2)cc1 | 817
6 | CNC(=O)N1CCCC(c2cccc(C(=O)N3CCN(c4ccccc4F)CC3)c2)C1 (configuration not stated) | 834
7 | Cc1cc(-c2c(C)sc(C)c2S(=O)(=O)N2CCN(c3ccccc3F)CC2)n[nH]1 | 971
8 | Oc1cccc(-c2nc3cnccn3c2Nc2ccc(Br)cc2)c1 | 1020
9 | CC(Cc1ccco1)NC(=O)c1ccc2nc(Cc3ccccc3)oc2c1 (configuration not stated) | 947
10 | COc1cccc(CNC(=O)C2CCCN(c3nnc(C)c4c(C)n(-c5ccccc5)nc34)C2)c1 (configuration not stated) | 715
11 | Cn1nc(-c2ccccc2)cc1C(=O)Nc1nc2c(s1)CN(S(=O)(=O)C1CC1)CC2 | 854
12 | O=C(c1cc(-c2ccccc2)n[nH]1)N1CCN(c2ccc(N3CCOCC3)nn2)CC1 | 595
13 | CCCNC(=O)C1CCCN(c2nc3ncn(CC(=O)Nc4cccc(Cl)c4)c(=O)c3s2)C1 (configuration not stated) | 731
14 | CN(C)c1cc(C(=O)NC2CC2)c2ccccc2n1 | 565
15 | O=C(Nc1cccc(F)c1)C1CCCN(c2nc3ccccc3nc2C(F)(F)F)C1 (configuration not stated) | 1210
16 | COC(=O)CNC(=O)C1CN(C(=O)c2ccccc2)CC12CCCCC2 (configuration not stated) | 731
17 | Cc1ccc(-c2noc(Cn3ccn4nc(-c5ccc6c(c5)OCO6)cc4c3=O)n2)cc1 | 1050
18 | CCc1ccccc1NC(=O)N1CCC(c2cc(=O)n3nccc3n2C)CC1 | 663
19 | Cc1ccc(NC(=O)N2CCC(N3CCN(Cc4ccccc4)C(=O)C3=O)CC2)cc1Cl | 809
20 | Cc1ccc(NC(=O)C2CCCN(C(=O)C3Sc4ccccc4NC3=O)C2)cc1Cl (configuration not stated) | 893
21 | COc1cc2ncc(C(=O)c3ccc(C)c(C)c3)c(N3CCN(C)CC3)c2cc1OC | 570
22 | O=C(CN1C(=O)C(C(=O)N2CCCC2)Sc2ccccc21)NCc1ccccc1Cl (configuration not stated) | 928
23 | O=C(Cn1nc2nc(Nc3ccc(F)cc3)ccn2c1=O)NCC1CCCO1 (configuration not stated) | 637

Row | Compound | RP-LC retention time [s]
24 | O=C1C=C(N2CCNCC2)C(=O)c2c(O)ccc(O)c21 | 600
25 | O=C(Nc1ccc(F)cc1F)N1CCc2nc(-c3ccc(F)cc3)ncc2C1 | 932
26 | CNC(=O)N1CCCC(c2cccc(C(=O)NCc3cccs3)c2)C1 (configuration not stated) | 719
27 | CCCS(=O)(=O)N1CC(=O)N(c2ccccc2F)C(C)(C(=O)NC2CCCCCCC2)C1 (configuration not stated) | 997
28 | CCN1C(=O)Cc2ccccc2C1C(=O)NCc1cc(F)ccc1F (configuration not stated) | 753
29 | CCc1noc(-c2ccnc(-n3ncc(C(=O)NC4CCCCC4)c3C)c2)n1 | 1020
30 | O=C(CN1C(=O)CCCc2cc(S(=O)(=O)N3CCCCCC3)ccc21)N1CCCCCC1 | 915
31 | CCOC(=O)c1c(C)[nH]c(C(=O)N2CCC(CC(=O)NCc3ccc(F)cc3)CC2)c1C | 780
32 | O=C(Nc1ccc(Cl)c(N2CCCS2(=O)=O)c1)c1ccccc1C(F)(F)F | 791
33 | CC(=O)Nc1ccc2c(c1)CN(C(=O)c1c(F)cccc1F)C(C(=O)N1CCCC1)C2 (configuration not stated) | 873
34 | COc1ccccc1N1CCN(C(=O)c2cc(NC(=O)C(C)C)cc3nc(C)ccc23)CC1 | 666
35 | CCN1C(=O)C2(CCN(C(C)=O)CC2)c2ccccc21 | 707
36 | CCC(CO)NCc1ccc(-c2ccc(Cl)cc2Cl)o1 (configuration not stated) | 692
37 | COCc1nc(CCNC(=O)C2CCCO2)no1 (configuration not stated) | 593
38 | CCn1c(=O)c(C)nc2cc(-c3noc(C4CC(=O)N(c5ccccc5)C4)n3)ccc21 (configuration not stated) | 837
39 | O=C(NCCSc1ncc(-c2ccc(F)cc2)[nH]1)c1ccccc1Cl | 604
40 | COCCCCC(=NOCCN)c1ccc(C(F)(F)F)cc1 | 734
41 | COc1ccc(-c2cc3c(=O)n(CC(=O)N4CCN(c5ccccn5)CC4)nc(C)n3n2)cc1 | 663
42 | COCCNC(=O)C1CCCN(S(=O)(=O)c2cc(OC)ccc2OC)C1 (configuration not stated) | 687
43 | COc1ccccc1N1CCN(c2cc(SCC(=O)Nc3ccc(C(C)C)cc3)ncn2)CC1 | 1140
44 | CC1CCN(S(=O)(=O)c2nn(Cc3ccccn3)cc2C(=O)O)CC1 | 721
45 | O=C(c1ccco1)N1CCN(c2ccc(=O)n(-c3cccc(Cl)c3)n2)CC1 | 753
46 | Cc1nc(-c2cn(C(C)C)c3ncccc23)sc1C(=O)Nc1ccc2c(c1)OCO2 | 998

Row | Compound | RP-LC retention time [s]
47 | Cc1oc(C2CCN(S(=O)(=O)c3cccc(F)c3)CC2)nc1C(=O)N(C)C | 798
48 | COC(=O)c1c(-c2cccc(F)c2)noc1NCCN1CCCC1 | 640
49 | Cc1ccc(-c2ncccc2CNS(=O)(=O)c2ccc(Cl)s2)cc1 | 780
50 | COc1cccc(Cn2c(C(=O)N3CCC(C(=O)NC4CCCCC4)CC3)cc3ccsc32)c1 | 1000
51 | O=C(Cn1cccc(-c2nc(-c3ccccc3)no2)c1=O)Nc1ccc(F)cc1F | 864
52 | CCN1C(=O)c2cccnc2Sc2cc(CNC(=O)c3cccn3C)ccc21 | 747
53 | Nc1c(C(=O)NCC2CC2)nsc1C(=O)O | 770
54 | CC(C)NC(=O)c1ccc2c(c1)nc(CN1CCN(C(=O)NC(C)C)CC1)n2C | 576
55 | CCc1nc(-n2cccc2)sc1C(=O)Nc1ccccc1F | 1100
56 | COc1ccc(S(=O)(=O)N2CCC(n3cnc4ccc(C)cc4c3=O)CC2)cc1OC | 827
57 | Cc1cccc(N(C)C(=O)CN2C(=O)NC3(CCCCC3)C2=O)c1 | 784
58 | COC(=O)c1ncn2c1C(=O)N(CCc1ccccc1)C(C)(C(=O)NC1CCCC1)C2 (configuration not stated) | 738
59 | CCOC(=O)c1c(C)[nH]c(C(=O)N2CCCC(C(=O)NCCN3CCN(CC)CC3)C2)c1C (configuration not stated) | 567
60 | CC(C)(C)C1CCC(OCC(O)CN2CCN(CCO)CC2)CC1 (configuration not stated) | 581
61 | CC(C(=O)Nc1ccc(F)c(F)c1)C1CCN(C(=O)Nc2ccc(Cl)cc2)CC1 (configuration not stated) | 984
62 | O=C(CCS(=O)(=O)c1ccccc1)NCc1ccsc1 | 671
63 | O=C(NCC1CCCO1)C1CCN(c2ncnc3c2oc2ccccc23)CC1 (configuration not stated) | 618
64 | Cc1cc(C)c2c(SC(C)C)nc(N)nc2n1 | 676
65 | Cc1nc2cc(-c3noc(-c4ccsc4)n3)ccc2o1 | 977
66 | Cc1c(C(=O)N(C)C)cnn1-c1cc(-c2nc(C(C)(C)C)no2)ccn1 | 922
67 | CCc1cccc(NC(=O)Cn2c(N3CCOCC3)nc(CC)cc2=O)c1 | 791
